# Source: PMC4013371 (The Journal of Veterinary Medical Science, 2013)
# How the values were obtained:
# [1] = Adverse effects during multiple CLM treatment; type: in vivo, healthy beagles (dogs); conditions: CLM about 10 mg/kg PO twice daily for ten days; three healthy beagles
# [2] = CLM 10 mg/kg PO, healthy beagles, not steady state; cited from earlier work
structure (smiles),measurement,setting,value
"CC[C@H]1OC(=O)[C@H](C)[C@@H](O[C@H]2C[C@@](C)(OC)[C@@H](O)[C@H](C)O2)[C@H](C)[C@@H](O[C@@H]2O[C@H](C)C[C@H](N(C)C)[C@H]2O)[C@](C)(OC)C[C@@H](C)C(=O)[C@H](C)[C@@H](O)[C@]1(C)O [CLM, Clarithromycin]","adverse effects associated with CLM, such as gastrointestinal irritation",[1],no adverse effects
same,serum concentrations,[2],approximately 3 µg/ml
